Laboratory results: patent US4570005A, “Process for the preparation of 2-arylpropyl ether or thioether derivatives” (priority 1980, dated 1986)

Columns and labels:
[1] = tested on: resistant green rice leafhopper (collected at Nakagawara); assay: Test 3: Effect on Resistant Green Rice Leafhopper (collected at Nakagawara); assay type: in vivo, Nephotettix cincticeps Uhler (Green rice leafhopper); conditions: Nephotettix cincticeps, 24 h, read-out: Mortality (%), Green Rice Leafhopper Collected at Nakagawara
Protocol: (§1) To a mixture of 20 parts of the compound of the present invention and 20 parts of Sorpol SM-200 (registered tradename for the product supplied by Toho Chemical Industrial Co., Ltd.) was added 60 parts of xylol, and the mixture was suffciently blended. The obtained emulsifiable concentrate was diluted at a predetermined concentration with distilled water, and the obtained dilution was used.
(§2) Seedlings (having 2 to 3 leaves) of paddy rice were hydroponically cultured in a pot having a diameter of 5 cm. A chemical dilution having a concentration of 100 or 20 ppm, prepared in the same manner as described in Test 1, was applied with a sprayer at a rate of 3 ml per pot. The treated seedlings were air-dried and covered with a metal net cylinder, and female adults of resistant green rice leafhopper (collected at Nakagawara) and sensitive green rice leafhopper (collected at Chigasaki) were set, respectively, free in the pot at a density of 10 adults per pot. After 24 hours, the numbers of killed and living adults were counted and the mortality was calculated. The test was made on three pots and the average value was calculated.

[2] = Test 8: Fish Toxicity; assay type: in vivo; conditions: carp, water; concentration at which 1/2 of the test fishes were killed within 48 hours; read-out: Fish Toxicity, TLm48
Protocol: A water tank having a width of 60 cm, a length of 30 cm and a height of 40 cm was filled with water, and 10 yearling carps having a body length of about 5 cm were set free in the tank and adapted to the environment in the tank. A test compound was applied so that the concentration in water was 10, 1 or 0.1 ppm. After 48 hours, the numbers of killed and living carps were counted and the influences on the fishes were examined.

[3] = Test 9: Toxicity Test (acute oral toxicity, mice); conditions: mouse, in vivo, po
Protocol: A predetermined amount of a solution or suspension of a test compound in corn oil was orally administered to male mice having a body weight of 19 to 23 g (0.2 ml per 10 g of the body weight). After 7 days, the number of killed mice was counted and the influences on the mice were examined.

[4] = tested on: sensitive green rice leafhopper (collected at Chigasaki); assay: whole plant or invertebrate; assay type: in vivo; conditions: Nephotettix cincticeps, sensitive female adults, 24 hours, read-out: Mortality (%), Green Rice Leafhopper Collected at Chigasaki
Protocol: as §1, §2

[5] = tested on: German cockroach; assay: Test 7: Effect on German Cockroach; assay type: in vivo; conditions: Blattella germanica, male adults, agonized and killed after 24 hours, read-out: Mortality (%); for mortality at 10 mg/m2: 10 mg/m^2; for mortality at 50 mg/m2: 50 mg/m^2
Protocol: as §1
The bottom face of a high Petri dish having a diameter of 9 cm and a height of 9 cm was treated with 50 or 10 mg/m^2 of a test compound and the dish was air-dried. In order to prevent the adults from escaping from the dish, the inner wall of the dish was treated with butter. Then, 10 male adults of German cockroach were set free in each dish, and the dish was placed in a thermostat chamber maintained at 25° C. After 24 hours, the number of agonized and killed adults was counted. The test was made on two dishes and the average value was calculated.

[6] = tested on: diamond back moth; assay: Test 4: Effect on Diamond Back Moth; assay type: in vivo; conditions: Plutella, third-instar larvae, 24 hours, read-out: Mortality (%)
Protocol: as §1
Cabbage leaves were spread in a plastic cup, and 10 third-instar larvae of diamond back moth were set free in the cup.
A chemical dilution having a concentration of 100 or 20 ppm, prepared in the same manner as described in Test 1, was applied from an applicator at a rate of 3 ml per cup.
After scattering of the chemical dilution, the cup was covered, and after 24 hours, the numbers of killed and living larvae were counted and the mortality was calculated. The test was made on three cups and the average value was calculated.

[7] = tested on: tobacco cutworm; assay: Test 1: Effect on Tobacco Cutworm (leaf immersion), mortality after 24 hours; assay type: in vivo; conditions: second-instar larvae, 25° C
Protocol: as §1
An emulsifiable concentrate of a test compound prepared according to the method described in Formulation Example 1 was diluted to a concentration of 100 or 20 ppm. Sweet-potato leaves were immersed in the dilution for 10 seconds, air-dried and placed in a plastic cup having a diameter of 10 cm. Then second-instar larvae of tobacco cutworm were set free in the cup. The cup was allowed to stand still in a thermostat chamber maintained at 25° C. After 24 hours, the numbers of killed and living larvae were counted and the mortality was calculated. The obtained result was expressed by an average value obtained from the mortality calculated in three test cups.

[8] = tested on: tobacco cutworm; assay: Test 2: Tobacco Cutworm Larva Dipping Test, mortality after 24 hours; assay type: in vivo; conditions: 24 hours
Protocol: as §1
A dilution having a chemical concentration of 100 or 20 ppm was prepared in the same manner as described in Test 1.
Second-instar and fifth-instar larvae of tobacco cutworm were dipped in the dilution for 5 seconds, and the excessive dilution was removed by a filter paper. Then, the larvae were set free in a plastic cup and an artificial diet was supplied thereto. The cup was allowed to stand still in a thermostat chamber maintained at 25° C. After 24 hours, the numbers of the killed and living larvae were counted and the mortality was calculated. The test was made on three cups and the result was expressed by an average value.

[9] = fifth-instar larvae, read-out: Motality (%), Fifth-Instar Larvae
[10] = second-instar larvae, read-out: Motality (%), Second-Instar Larvae

| SMILES | mortality at 20 ppm [1] | mortality at 100 ppm [1] | LC50 at 48 h [2] | LD50 at 168 h [3] | mortality at 20 ppm [4] | mortality at 100 ppm [4] | mortality at 10 mg/m2 [5] | mortality at 50 mg/m2 [5] | mortality at 20 ppm [6] | mortality at 100 ppm [6] | mortality at 20 ppm [7] | mortality at 100 ppm [7] | mortality at 20 ppm [8, 9] | mortality at 20 ppm [8, 10] | mortality at 100 ppm [8, 9] | mortality at 100 ppm [8, 10] |
| --- | --- | --- | --- | --- | --- | --- | --- | --- | --- | --- | --- | --- | --- | --- | --- | --- |
| Cc1ccc(Oc2cccc(COCC(C)(C)c3ccc(Cl)cc3)c2)cc1 [Compound 19, 3-(4-methylphenoxy)benzyl 2-(4-chlorophenyl)-2-methylpropyl ether] | 100% | 100% | > 10 µg/mL | > 500 mg/kg | 90% | 100% |  |  |  |  |  |  |  |  |  |  |
| CC(C)(COCc1cccc(Oc2ccccc2)c1)c1ccc(SC(F)(F)F)cc1 [Compound 104, 3-Phenoxybenzyl 2-(4-trifluoromethylthiophenyl)-2-methylpropyl ether] |  |  |  | > 500 mg/kg |  |  | 90% | 100% | 70% | 100% |  |  |  |  |  |  |
| CC(C)(COCc1cccc(Oc2ccc(F)cc2)c1)c1cccc(C(F)(F)F)c1 [Compound 23, 3-(4-Fluorophenoxy)benzyl 2-(3-trifluoromethylphenyl)-2-methylpropyl ether] |  |  | > 1 µg/mL | > 500 mg/kg |  |  |  |  |  |  | 80% | 100% |  |  |  |  |
| CC(C)(COCc1cccc(Oc2ccccc2)c1)c1ccc([N+](=O)[O-])cc1 [Compound 43, 3-Phenoxybenzyl 2-(4-nitrophenyl)-2-methylpropyl ether] | 100% | 100% |  | > 500 mg/kg | 90% | 100% | 100% | 100% |  |  | 85% | 100% |  |  |  |  |
| CC(C)(COCc1cccc(Oc2ccccc2)c1)c1ccc(Br)cc1 [Compound 107, 3-Phenoxybenzyl 2-(4-bromophenyl)-2-methylpropyl ether] | 100% | 100% | > 1 µg/mL | > 500 mg/kg | 100% | 100% |  |  |  |  |  |  |  |  |  |  |
| COc1ccc(Oc2cccc(COCC(C)(C)c3ccccc3)c2)cc1 [Compound 13, 3-(4-methoxyphenoxy)benzyl 2-phenyl-2-methylpropyl ether] | 70% | 100% | > 10 µg/mL | > 500 mg/kg | 50% | 100% |  |  |  |  |  |  |  |  |  |  |
| CC(C)(COCc1cccc(Oc2ccc(F)cc2)c1)c1ccc(Cl)c(Cl)c1 [Compound 17, 3-(4-fluorophenoxy)benzyl 2-(3,4-dichlorophenyl)-2-methylpropyl ether] | 100% | 100% |  | > 500 mg/kg | 100% | 100% | 100% | 100% | 90% | 100% | 80% | 100% |  |  |  |  |
| CC1(C)C(C=C(Cl)Cl)C1C(=O)OCc1cccc(Oc2ccccc2)c1 (stereo not shown) [(i), Permethrin, reference compound] |  |  | < 0.005 µg/mL |  |  |  |  |  |  |  |  |  |  |  |  |  |
| C=COc1ccc(C(C)(C)COCc2cccc(Oc3ccccc3)c2)cc1 [Compound 67, 3-Phenoxybenzyl 2-(4-vinyloxyphenyl)-2-methylpropyl ether] |  |  |  | > 500 mg/kg |  |  | 100% | 100% | 90% | 100% | 90% | 100% | 100% | 100% | 100% | 100% |
| CC(F)(F)Oc1ccc(C(C)(C)COCc2cccc(Oc3ccccc3)c2)cc1 [Compound 79, 3-Phenoxybenzyl 2-[4-(1,1-difluoroethoxy)phenyl]-2-methylpropyl ether] |  |  |  | > 500 mg/kg |  |  | 100% | 100% |  |  |  |  | 50% | 80% | 90% | 100% |
| CC(C)C(C(=O)OC(C#N)c1cccc(Oc2ccccc2)c1)c1ccc(Cl)cc1 (stereo not shown) [Comparative Compound (a), reference compound] |  |  | < 0.005 µg/mL | 260 mg/kg |  |  |  |  |  |  |  |  |  |  |  |  |
| CC(C)(COCc1cccc(Oc2ccc(Br)cc2)c1)c1ccc(Cl)c(Cl)c1 [Compound 21, 3-(4-Bromophenoxy)benzyl 2-(3,4-dichlorophenyl)-2-methylpropyl ether] | 85% | 100% | > 10 µg/mL | > 500 mg/kg | 60% | 100% |  |  |  |  |  |  |  |  |  |  |
| CC(C)(COCc1cccc(Oc2ccccc2)c1)c1ccc(OC(F)(F)CI)cc1 [Compound 74, 3-Phenoxybenzyl 2-[4-(1,1-difluoro-2-iodoethoxy)phenyl]-2-methylpropyl ether] |  |  |  | > 500 mg/kg |  |  | 100% | 100% |  |  | 100% | 100% | 50% | 70% | 80% | 100% |
| CC(C)(COCc1cccc(Oc2ccccc2)c1)c1ccc(I)cc1 [Compound 65, 3-Phenoxybenzyl 2-(4-iodophenyl)-2-methylpropyl ether] | 100% | 100% |  | > 500 mg/kg | 100% | 100% | 90% | 100% |  |  | 90% | 100% |  |  |  |  |
| CC(C)(COCc1cccc(Oc2cccc(Cl)c2)c1)c1ccc(Cl)c(Cl)c1 [Compound 38, 3-(3-Chlorophenoxy)benzyl 2-(3,4-dichlorophenyl)-2-methylpropyl ether] | 95% | 100% |  | > 500 mg/kg | 80% | 100% | 90% | 100% |  |  |  |  |  |  |  |  |
| CC(C)(COCc1cccc(Oc2ccccc2)c1)c1ccc(OC2CCCC2)cc1 [Compound 61, 3-Phenoxybenzyl 2-(4-cyclopentyloxyphenyl)-2-methylpropyl ether] | 100% | 100% |  | > 500 mg/kg | 100% | 100% | 70% | 100% |  |  |  |  |  |  |  |  |
